pIC50: −log10 of the molar value.
Experiments:
MDAMB231 = test: CellTiter-Blue cell-based survival/proliferation assay, MDAMB231; settings: Homo sapiens, MDA-MB-231; MDAMB231 breast tumor cell line, 48 h
Experimental: (§1) Cell-Based Proliferation Screening of Compounds
(§2) CellTiter-Blue cell-based survival/proliferation assay (Promega G8080) was performed on tumor cell lines. A total of 1·10^4 cells/well/50 μl were seeded in a 96-wells plate. Treatment was initiated by addition of a 2× drug solution of 1/10 serial dilutions ranging from 0 to 10 μM. Cells were grown for 48 h at 37° C. and then incubated with 10 μl/well of Promega CellTiter-Bleue reagent for 4 h at 37° C. The amount of resorufin dye formed was quantified by its fluorescence emission at 590 nm using a scanning multiwell spectrophotometer (OPTIMA, BMG labtech, France). A blank well without cells was used as a background control for the spectrophotometer.

[1] = system: panel of about 34 human tumor cell lines; test: Cell-based proliferation screening on panel of tumor cell lines; settings: solid tumor cell line, cell line unknown, 48 h, read-out: IC50, solid tumor cell line of column 6 (last section of Table 3)
Experimental: Compounds of formula (I) were tested against a panel of about 34 human tumor cell lines representing 17 cancer type, namely leukemia (represented by 1 cell line), lymphoma (4 cell lines), myeloma (1 cell line), colorectal (2 cell lines), head and neck (3 cell lines), lung (3 cell lines), melanoma (2 cell lines), pancreas (2 cell lines), prostate (2 cell lines), ovary (2 cell lines) breast (2 cell lines), kidney (2 cell lines), stomach (2 cell lines), liver (2 cell lines), glioblastoma (2 cell lines), osteosarcoma (1 cell line), Ewing Sarcoma (1 cell line).
as §1, §2

H1299 = test: CellTiter-Blue cell-based survival/proliferation assay, H1299; settings: Homo sapiens, NCI-H1299; H1299 lung tumor cell line, 48 h
Experimental: as §1, §2

DLD1 = test: CellTiter-Blue cell-based survival/proliferation assay, DLD1; settings: Homo sapiens, DLD-1; DLD_1 colorectal tumor cell line, 48 h
Experimental: as §1, §2

HUT78 = test: CellTiter-Blue cell-based survival/proliferation assay, HUT78; settings: Homo sapiens, Lymphoma cell line HUT78, 48 h, read-out: Anti-tumoral activity (measured IC50) HUT78
Experimental: as §1, §2

A549 = test: CellTiter-Blue cell-based survival/proliferation assay, A549; settings: Homo sapiens; A549 lung tumor cell line, 48 h
Experimental: as §1, §2

HEPG2 = test: CellTiter-Blue cell-based survival/proliferation assay, HEPG2; settings: Homo sapiens; HEPG2 liver tumor cell line, 48 h
Experimental: as §1, §2

KARPAS299 = test: CellTiter-Blue cell-based survival/proliferation assay, KARPAS299; settings: Homo sapiens, KARPAS-299, Lymphoma cell line KARPAS299, 48 h, read-out: Anti-tumoral activity (measured IC50) KARPAS299
Experimental: as §1, §2

MESSA = test: CellTiter-Blue cell-based survival/proliferation assay, MESSA; settings: Homo sapiens, MES-SA; MESSA ovary tumor cell line, 48 h
Experimental: as §1, §2

OPM2 = test: CellTiter-Blue cell-based survival/proliferation assay, OPM2; settings: Homo sapiens, OPM-2, Myeloma cell line OPM2, 48 h, read-out: Anti-tumoral activity (measured IC50) OPM2
Experimental: as §1, §2

BT20 = test: CellTiter-Blue cell-based survival/proliferation assay, BT20; settings: Homo sapiens, BT-20; BT20 breast tumor cell line, 48 h
Experimental: as §1, §2

SW579 = test: CellTiter-Blue cell-based survival/proliferation assay, SW579; settings: Homo sapiens; SW579 head & neck tumor cell line, 48 h
Experimental: as §1, §2

PC3 = test: CellTiter-Blue cell-based survival/proliferation assay, PC3; settings: Homo sapiens, PC-3; PC3 prostate tumor cell line, 48 h
Experimental: as §1, §2

A498 = test: CellTiter-Blue cell-based survival/proliferation assay, A498; settings: Homo sapiens; A498 kidney tumor cell line, 48 h
Experimental: as §1, §2

ACHN = test: CellTiter-Blue cell-based survival/proliferation assay, ACHN; settings: Homo sapiens; ACHN kidney tumor cell line, 48 h
Experimental: as §1, §2

HL60 = test: CellTiter-Blue cell-based survival/proliferation assay, HL60; settings: Homo sapiens, HL-60, Leukemia cell line HL60, 48 h, read-out: Anti-tumoral activity (measured IC50) HL60
Experimental: as §1, §2

BXPC3 = test: CellTiter-Blue cell-based survival/proliferation assay, BXPC3; settings: Homo sapiens, BXPC-3; BXPC3 pancreas tumor cell line, 48 h
Experimental: as §1, §2

REC1 = test: CellTiter-Blue cell-based survival/proliferation assay, REC1; settings: Homo sapiens, Lymphoma cell line REC1, 48 h, read-out: Anti-tumoral activity (measured IC50) REC1
Experimental: as §1, §2

CALU6 = test: CellTiter-Blue cell-based survival/proliferation assay, CALU6; settings: Homo sapiens, Calu-6; CALU6 lung tumor cell line, 48 h
Experimental: as §1, §2

AGS = test: CellTiter-Blue cell-based survival/proliferation assay, AGS; settings: Homo sapiens; AGS stomach tumor cell line, 48 h
Experimental: as §1, §2

PANC1 = test: CellTiter-Blue cell-based survival/proliferation assay, PANC1; settings: Homo sapiens, PANC-1; PANC_1 pancreas tumor cell line, 48 h
Experimental: as §1, §2

HCT116 = test: CellTiter-Blue cell-based survival/proliferation assay, HCT116; settings: Homo sapiens, HCT-116; HCT116 colorectal tumor cell line, 48 h
Experimental: as §1, §2

CLS354 = test: CellTiter-Blue cell-based survival/proliferation assay, CLS354; settings: Homo sapiens, CLS-354; CLS354_4 head & neck tumor cell line, 48 h
Experimental: as §1, §2

DU145 = test: CellTiter-Blue cell-based survival/proliferation assay, DU145; settings: Homo sapiens, DU-145; DU145 prostate tumor cell line, 48 h
Experimental: as §1, §2

HGC27 = test: CellTiter-Blue cell-based survival/proliferation assay, HGC27; settings: Homo sapiens, HGC-27; HGC27 stomach tumor cell line, 48 h
Experimental: as §1, §2

TOV112D = test: CellTiter-Blue cell-based survival/proliferation assay, TOV112D; settings: Homo sapiens; TOV112D ovary tumor cell line, 48 h
Experimental: as §1, §2

HEP2 = test: CellTiter-Blue cell-based survival/proliferation assay, HEP2; settings: Homo sapiens, HEp-2; HEP2 head & neck tumor cell line, 48 h
Experimental: as §1, §2

PLCPRF5 = test: CellTiter-Blue cell-based survival/proliferation assay, PLCPRF5; settings: Homo sapiens, PLC-PRF-5; PLC_PRF5 liver tumor cell line, 48 h
Experimental: as §1, §2

Row | pIC50 [1] | SMILES | pIC50 (MDAMB231) | pIC50 (H1299) | pIC50 (DLD1) | pIC50 (A549) | pIC50 (HEPG2) | pIC50 (MESSA) | pIC50 (OPM2) | pIC50 (BT20) | pIC50 (SW579) | pIC50 (PC3) | pIC50 (A498) | pIC50 (ACHN) | pIC50 (HL60) | pIC50 (BXPC3) | pIC50 (CALU6) | pIC50 (AGS) | pIC50 (PANC1) | pIC50 (HCT116) | pIC50 (CLS354) | further results
1 | ≥ 7.00 | CCOCc1cccc(Nc2ncc(-c3ccc(-n4cccn4)cc3)o2)c1 [Example 020, (3-Ethoxymethyl-phenyl)-[5-(4-pyrazol-1-yl-phenyl)-oxazol-2-yl]-amine] | 6.30 to 7.00 | < 6.00 | 6.30 to 7.00 | < 6.00 | < 6.00 | < 6.00 | ≥ 7.00 | < 6.00 | < 6.00 | ≥ 7.00 | < 6.00 | < 6.00 | ≥ 7.00 | 6.00 to 6.30 | < 6.00 | < 6.00 | < 6.00 | < 6.00 | ≥ 7.00 | pIC50 (HUT78): ≥ 7.00; pIC50 (KARPAS299): ≥ 7.00; pIC50 (REC1): ≥ 7.00; pIC50 (DU145): < 6.00; pIC50 (HGC27): < 6.00; pIC50 (TOV112D): < 6.00; pIC50 (HEP2): < 6.00; pIC50 (PLCPRF5): < 6.00
2 | 6.30 to 7.00 | CCOCc1cc(C)cc(Nc2ncc(-c3ccc(-n4cccn4)cc3)o2)c1 [Example 021, (3-Ethoxymethyl-5-methyl-phenyl)-[5-(4-pyrazol-1-yl-phenyl)-oxazol-2-yl]-amine] | < 6.00 | < 6.00 | 6.00 to 6.30 | < 6.00 | < 6.00 | < 6.00 | 6.30 to 7.00 | < 6.00 | < 6.00 | 6.00 to 6.30 | < 6.00 | < 6.00 | 6.30 to 7.00 | < 6.00 | < 6.00 | < 6.00 | < 6.00 | < 6.00 | 6.30 to 7.00 | pIC50 (HUT78): 6.00 to 6.30; pIC50 (KARPAS299): 6.30 to 7.00; pIC50 (REC1): 6.30 to 7.00; pIC50 (DU145): < 6.00; pIC50 (HGC27): < 6.00; pIC50 (TOV112D): < 6.00; pIC50 (HEP2): < 6.00; pIC50 (PLCPRF5): < 6.00
3 | 6.00 to 6.30 | CCOCc1ccc(C)c(Nc2ncc(-c3ccc(-c4ccn[nH]4)cc3)o2)c1 [Example 057, 5-(4-(1H-pyrazol-5-yl)phenyl)-N-(5-(ethoxymethyl)-2-methylphenyl)oxazol-2-amine] | < 6.00 | < 6.00 | < 6.00 | < 6.00 | < 6.00 | < 6.00 | 6.30 to 7.00 | < 6.00 | < 6.00 | 6.00 to 6.30 | < 6.00 | < 6.00 | 6.30 to 7.00 | < 6.00 | < 6.00 | < 6.00 | < 6.00 | < 6.00 | 6.30 to 7.00 | pIC50 (DU145): < 6.00; pIC50 (HGC27): < 6.00; pIC50 (TOV112D): ≥ 7.00; pIC50 (HEP2): 6.00 to 6.30; pIC50 (PLCPRF5): < 6.00

Reference: patent US10570122B2, “Compounds with anti-tumoral activity” (AB Science, priority 2015, dated 2020)
